Measured values published in patent publication US20150191445A1, “ACYL-HYDRAZONE AND OXADIAZOLE COMPOUNDS, PHARMACEUTICAL COMPOSITIONS CONTAINING THE SAME AND USES THEREOF” (Universidade Federal de Santa Catarina, priority 2011, published 2015).

Legend:
Assay type in all cases: cell-based, human
REH cells = experiment: MTT cytotoxicity assay, REH cell line; conditions: 48 h of treatment
Description: (§1) All compounds were resuspended in DMSO at stock concentration of 20 mM and stored at −20° C. For cytotoxicity testing, the dilutions from the stock solutions were made in culture medium (RPMI-1640 plus 10% of fetal bovine serum, 100 IU/ml penicillin and 100 µg/mL Streptomycin), immediately before being discharged to the cells.
(§2) The REH and Jurkat cell lines were maintained in
(§3) RPMI-1640 medium with 10% FBS (fetal bovine serum), 100 IU/mL penicillin, 100 µg/mL streptomycin and incubated at 37° C. and 5% CO2. Cytotoxicity assays were performed according to the method described in the literature (Pieters, R.; et al. In vitro drug sensitivity of cells from children with leukemia using the MTT assay with improved culture conditions. Blood, 1990, 76, 2327-2336; Pieters, R.; et al. Relation of cellular drug resistance to long-term clinical outcome in childhood acute lymphoblastic leukaemia. Lancet, 1991, 338, 399-403 e Kaspers, G. J.; et al. In vitro cellular drug resistance and prognosis in newly diagnosed childhood acute lymphoblastic leukemia. Blood, 1997, 90, 2723). Cells were resuspended at a concentration of 3.75 10^5 cells/mL in culture medium as described. Eighty microliters of this suspension were seeded into plates with 96 round-bottom wells, containing 20 microliters of different concentrations of compound or vehicle alone. Each treatment was done in triplicate. After 48 hours of incubation at 37° C. and 5% CO2, 20 μL of MTT solution was added (5 mg/mL of 1x PBS), followed by further incubation for 4 hours and 30 minutes at 37° C. and 5% CO2. During these 4 hours and 30 minutes, MTT (yellowish) is metabolized to formazan salt (bluish in color) by living cells. After this, 100 μL sodium dodecyl sulphate (SDS) 10%+0.1M of HCl were added to dissolve the formazan crystals. After incubating overnight, absorbance reading at 570 nm was carried out. The percentage of cells surviving the treatment were calculated relative to the number of surviving cells in the medium without addition of the compounds in question (“negative control”).
(§4) c) Determination of IC: IC50 is defined as the concentration of a compound at which 50% of maximal inhibition is obtained. After reading the absorbance, survival curves were constructed and the values of IC50 were obtained with the GraphPad Prism software.

Jurkat cells [1] = experiment: Quantification of apoptosis with Annexin V/PI labeling; conditions: 125 nM, 18 h
Description: (§5) The cells were incubated for 12 hours in fresh medium before experiments. Two million cells from the Jurkat line were incubated for 12 h, 18 h, 24 h and 30 h in RPMI-640 medium supplemented with 10% Fetal Bovine Serum (FCS) and 0.2% Penicillin/Streptomycin (PS) with a concentration of 125 nM of compound 07 or DMSO (vehicle).
The cells treated or not with compound 07 were rinsed in PBS and labeled with Annexin V Apoptosis Assay kit (Invitrogen). Briefly, cells were resuspended in appropriate buffer containing calcium and incubated for 15 min with Annexin V-FITC and propidium iodide 5 μg/mL. 10,000 events were collected on FACSCalibur flow cytometer, excluding any debris by forward vs standard, side scatter, with quantification of green and red fluorescence.

[2] = system: Bone marrow cells from healthy donors; experiment: Colony formation assay of hematopoietic cells; conditions: for Colony formation BFU-E / Colony formation CFU-E / Colony formation CFU-G / Colony formation CFU-GEMM / Colony formation CFU-GM / Colony formation CFU-M: two weeks of culture
Description: Cytotoxicity of compound 07 was also evaluated with a colony formation assay of hematopoietic cells. A “HSC-CFU complete with Epo” kit from Miltenyi (Cat #130-091-280) was used following the manufacturer's recommendations. Bone marrow cells from healthy donors were cultured in semi-solid methylcellulose medium supplemented with bovine fetal serum, bovine serum albumin, different growth factors (GM-CSF, G-CSF, SCF, IL-3, IL-6, Epo) and compound 07, whose action on hematopoiesis was evaluated. After two weeks of culture at 37° C. and 5% CO2, an assessment of the number of granulocytes (CFU-G), macrophage (CFU-M), granulocyte/macrophage (CFU-GM), erythroid (BFU-E and CFU-E) and mixed (CFU-GEMM) colonies was carried out.

[3] = system: cell cycle regulatory proteins in Jurkat cells; experiment: Western blot of cell cycle regulatory proteins; conditions: 125 nM
Description: as §5
The cells treated or not with compound 07 were lysed in buffer containing 50 mM Tris pH 7.7, 150 mM NaCl, 5 mM EDTA, 1% Sigma phosphatase inhibitor cocktail I, 1% Sigma phosphatase inhibitor cocktail II, 1% Sigma protease inhibitor cocktail II, 1% Igepal, 0.1% SDS, 0.5% sodium deoxycholate and 1 mM PMSF. After incubation for 30 min on ice and 3 cycles of freezing and thawing, extracts were centrifuged at 10,000 rpm for 20 min at 4° C. to sediment membrane debris. Of the supernatant, we proceeded with protein quantification by Bradford reagent (Biorad). The samples were boiled for 5 min with prior addition of β-mercaptoethanol and 100 μg of protein were subjected to acrylamide:bisacrylamide gel electrophoresis (39:1) 10% with SDS and electrotransferred to 0.45 μm nitrocellulose membrane (Schleicher & Schuell). […]

Jurkat cells [4] = experiment: Cell cycle analysis, propidium iodide flow cytometry; conditions: 125 nM, 18 h
Description: as §5
The cells treated or not with compound 07 were fixed in 70% ethanol for 2 hours, washed in PBS and incubated for 15 min at 37° C. in 1 mL of Triton X-100 0.1% 0.2 mg/mL of RNAse and 20 μg/mL propidium iodide in PBS. 20,000 events were collected on FACSCalibur flow cytometer with red fluorescence quantification, excluding any cell aggregates by the standard width vs. red fluorescence peak area. The data deconvolution to obtain the percentage of cells in each phase of cell cycle was performed using ModFit software v2.0.

Jurkat cells [5] = experiment: MTT cytotoxicity assay, Jurkat cell line; conditions: 48 h of treatment, read-out: IC50 T (Jurkat)
Description: as §1, §2, §3, §4

Q: What does the source list for `COc1cc(C(=O)NN=Cc2cccc3ccccc23)cc(OC)c1OC` [Compound 07]?
A: IC50 (REH cells): 25.4 nM; induction of apoptosis (Jurkat cells [1]): strong inducer of apoptosis; Colony formation BFU-E ([2]; 2 nM): 39%; Colony formation CFU-E ([2]; 2 nM): 23%; Colony formation CFU-G ([2]; 2 nM): 11%; Colony formation CFU-GEMM ([2]; 2 nM): 1%; Colony formation CFU-GM ([2]; 2 nM): 52%; Colony formation CFU-M ([2]; 2 nM): 17%; effect on erythrocyte formation ([2]; 20 nM): inhibitory activity on erythrocyte formation comparable to a PI3K inhibitor; effect on granulocytes and macrophages ([2]; 20 nM): inhibitory activity against granulocytes and macrophages, although low in intensity when compared to a F13K inhibitor; Colony formation BFU-E ([2]; 20 nM): 26%; Colony formation CFU-E ([2]; 20 nM): 11%; Colony formation CFU-G ([2]; 20 nM): 14%; Colony formation CFU-GEMM ([2]; 20 nM): 2%; Colony formation CFU-GM ([2]; 20 nM): 27%; Colony formation CFU-M ([2]; 20 nM): 25%; effect on hematopoiesis ([2]; 200 nM): completely inhibited hematopoiesis; Colony formation BFU-E ([2]; 200 nM): 0%; Colony formation CFU-E ([2]; 200 nM): 0%; Colony formation CFU-G ([2]; 200 nM): 0%; Colony formation CFU-GEMM ([2]; 200 nM): 0%; Colony formation CFU-GM ([2]; 200 nM): 0%; Colony formation CFU-M ([2]; 200 nM): 0%; expression of CDKs [3]: repression of the expression of CDK4 and to a lesser extent also of CDK6, shorter isoform of CDK2 and larger isoform of CDK9; phosphorylation of Chk2 ([3]; after 12 hours of treatment): possible to detect the phosphorylation of Chk2 in Thr68; effect on cell cycle (Jurkat cells [4]): cell cycle arrest in G2/M; IC50 (Jurkat cells [5]): 15.7 nM
